Here are results for seven molecules from ChEMBL document CHEMBL5465560, “Selectivity Literature for EUbOPEN Chemogenomic Library” (2024).

Test [1] deals with Serine/threonine-protein kinase/endoribonuclease IRE1 (Homo sapiens) (UniProt O75460). The experiment in a line: Selectivity interaction (KinomeScan (DiscoverX)) EUB0000666a ERN1. The note with it: at 10 µM.
For test [2], the target named is T1, Serine/threonine-protein kinase ULK1 (Homo sapiens) (UniProt O75385).
T1 sequence (whole entry): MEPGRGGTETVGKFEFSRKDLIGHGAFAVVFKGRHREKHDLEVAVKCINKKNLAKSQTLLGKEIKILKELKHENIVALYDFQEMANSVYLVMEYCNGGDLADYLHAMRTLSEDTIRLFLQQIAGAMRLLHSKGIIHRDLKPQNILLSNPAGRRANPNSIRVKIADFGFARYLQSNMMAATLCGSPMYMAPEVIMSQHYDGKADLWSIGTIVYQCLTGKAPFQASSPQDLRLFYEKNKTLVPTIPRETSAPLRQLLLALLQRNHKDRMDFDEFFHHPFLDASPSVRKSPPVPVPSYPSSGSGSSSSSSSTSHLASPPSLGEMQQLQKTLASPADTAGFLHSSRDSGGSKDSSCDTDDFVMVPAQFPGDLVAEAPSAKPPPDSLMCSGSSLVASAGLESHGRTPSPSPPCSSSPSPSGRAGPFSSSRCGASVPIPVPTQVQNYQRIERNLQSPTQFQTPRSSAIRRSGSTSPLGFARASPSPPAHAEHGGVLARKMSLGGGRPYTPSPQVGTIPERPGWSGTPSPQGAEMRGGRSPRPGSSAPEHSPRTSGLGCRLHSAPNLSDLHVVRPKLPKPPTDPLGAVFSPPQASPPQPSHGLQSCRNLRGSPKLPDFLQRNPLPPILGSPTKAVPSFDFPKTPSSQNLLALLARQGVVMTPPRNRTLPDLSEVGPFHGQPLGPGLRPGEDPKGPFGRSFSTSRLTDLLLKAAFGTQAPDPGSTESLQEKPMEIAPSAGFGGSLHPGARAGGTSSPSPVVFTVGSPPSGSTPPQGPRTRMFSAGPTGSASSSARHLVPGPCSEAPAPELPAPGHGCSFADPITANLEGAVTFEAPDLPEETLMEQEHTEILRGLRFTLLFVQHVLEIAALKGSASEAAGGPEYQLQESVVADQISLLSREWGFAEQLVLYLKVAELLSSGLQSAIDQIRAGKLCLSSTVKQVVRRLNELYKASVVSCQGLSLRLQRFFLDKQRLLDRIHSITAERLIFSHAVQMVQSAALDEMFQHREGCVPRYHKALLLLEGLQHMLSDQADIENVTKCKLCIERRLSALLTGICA
Briefly: Selectivity interaction (Kinase panel (DSF assay)) EUB0001558a ULK1.

For test [3], the system named is eIF-2-alpha kinase GCN2 (Homo sapiens), Q9P2K8 [S808G]. Briefly: Selectivity interaction (KinomeScan (DiscoverX)) EUB0000229b EIF2AK4. The note with it: at 10 µM.
Chain of eIF-2-alpha kinase GCN2 (Homo sapiens), Q9P2K8 [S808G] (Q9P2K8 whole entry S808G): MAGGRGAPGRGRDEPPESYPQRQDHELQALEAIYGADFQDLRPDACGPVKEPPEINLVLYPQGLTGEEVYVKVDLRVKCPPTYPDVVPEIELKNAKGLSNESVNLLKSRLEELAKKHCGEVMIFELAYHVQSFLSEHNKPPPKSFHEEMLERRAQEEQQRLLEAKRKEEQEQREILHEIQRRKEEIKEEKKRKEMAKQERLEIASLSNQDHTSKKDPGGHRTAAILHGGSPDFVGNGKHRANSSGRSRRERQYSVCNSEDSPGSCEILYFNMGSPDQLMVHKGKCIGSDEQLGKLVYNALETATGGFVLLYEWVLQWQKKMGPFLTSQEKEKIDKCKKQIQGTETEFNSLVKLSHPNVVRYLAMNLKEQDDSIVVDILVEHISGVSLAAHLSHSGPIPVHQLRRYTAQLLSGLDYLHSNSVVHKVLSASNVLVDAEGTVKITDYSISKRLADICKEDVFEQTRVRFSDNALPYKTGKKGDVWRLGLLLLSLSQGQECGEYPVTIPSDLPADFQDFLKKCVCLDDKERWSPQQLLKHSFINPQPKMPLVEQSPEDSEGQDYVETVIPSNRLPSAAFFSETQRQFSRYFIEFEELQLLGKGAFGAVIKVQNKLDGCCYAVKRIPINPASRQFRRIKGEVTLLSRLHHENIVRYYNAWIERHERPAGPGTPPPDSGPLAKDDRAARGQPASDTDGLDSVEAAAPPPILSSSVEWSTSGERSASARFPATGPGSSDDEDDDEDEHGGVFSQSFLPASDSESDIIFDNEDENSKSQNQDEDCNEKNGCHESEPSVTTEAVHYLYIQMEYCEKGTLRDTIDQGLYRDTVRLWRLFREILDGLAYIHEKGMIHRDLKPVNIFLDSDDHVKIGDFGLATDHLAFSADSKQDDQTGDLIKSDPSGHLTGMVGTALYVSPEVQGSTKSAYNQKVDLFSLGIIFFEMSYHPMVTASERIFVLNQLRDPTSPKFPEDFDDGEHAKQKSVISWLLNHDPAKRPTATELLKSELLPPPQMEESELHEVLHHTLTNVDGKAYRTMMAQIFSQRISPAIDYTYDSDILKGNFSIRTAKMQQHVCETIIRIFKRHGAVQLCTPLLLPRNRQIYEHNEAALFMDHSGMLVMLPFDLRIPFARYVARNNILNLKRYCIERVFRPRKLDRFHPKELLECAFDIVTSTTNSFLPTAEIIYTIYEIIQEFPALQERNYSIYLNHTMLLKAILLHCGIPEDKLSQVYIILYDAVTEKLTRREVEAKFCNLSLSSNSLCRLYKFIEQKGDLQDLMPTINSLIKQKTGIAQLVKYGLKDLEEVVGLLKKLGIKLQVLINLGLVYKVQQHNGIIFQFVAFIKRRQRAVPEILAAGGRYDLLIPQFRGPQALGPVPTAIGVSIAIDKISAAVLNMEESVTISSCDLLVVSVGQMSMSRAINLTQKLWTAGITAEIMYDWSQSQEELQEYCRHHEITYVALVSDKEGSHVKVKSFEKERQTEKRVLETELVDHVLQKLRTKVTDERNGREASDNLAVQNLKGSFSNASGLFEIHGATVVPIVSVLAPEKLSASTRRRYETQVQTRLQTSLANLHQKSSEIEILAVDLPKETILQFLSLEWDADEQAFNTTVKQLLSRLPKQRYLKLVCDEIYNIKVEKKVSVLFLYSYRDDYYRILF
For test [4], the target named is 5'-AMP-activated protein kinase catalytic subunit alpha-1 (Homo sapiens, UniProt Q13131). The experiment in a line: Selectivity interaction (Kinase panel (literature)) EUB0001199aCl PRKAA1. The note with it: at 1 µM.
Chain of 5'-AMP-activated protein kinase catalytic subunit alpha-1 (Q13131 whole entry, looked up): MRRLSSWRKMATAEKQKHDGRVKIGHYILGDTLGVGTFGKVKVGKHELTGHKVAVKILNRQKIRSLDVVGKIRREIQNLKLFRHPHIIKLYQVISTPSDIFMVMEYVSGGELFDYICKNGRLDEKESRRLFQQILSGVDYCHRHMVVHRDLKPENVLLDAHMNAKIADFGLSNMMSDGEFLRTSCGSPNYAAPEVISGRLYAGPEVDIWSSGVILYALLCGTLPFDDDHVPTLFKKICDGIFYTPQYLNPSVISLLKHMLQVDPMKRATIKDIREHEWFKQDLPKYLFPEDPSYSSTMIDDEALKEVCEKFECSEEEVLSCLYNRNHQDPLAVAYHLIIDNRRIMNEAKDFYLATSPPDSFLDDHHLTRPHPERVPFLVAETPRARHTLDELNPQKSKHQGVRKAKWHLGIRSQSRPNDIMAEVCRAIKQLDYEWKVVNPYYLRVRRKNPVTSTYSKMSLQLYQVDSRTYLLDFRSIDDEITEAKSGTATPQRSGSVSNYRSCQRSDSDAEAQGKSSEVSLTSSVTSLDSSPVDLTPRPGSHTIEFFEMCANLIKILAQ
Test [5] has as its target T2, Dual specificity mitogen-activated protein kinase kinase 5 (Homo sapiens) (UniProt Q13163).
T2 sequence (whole entry): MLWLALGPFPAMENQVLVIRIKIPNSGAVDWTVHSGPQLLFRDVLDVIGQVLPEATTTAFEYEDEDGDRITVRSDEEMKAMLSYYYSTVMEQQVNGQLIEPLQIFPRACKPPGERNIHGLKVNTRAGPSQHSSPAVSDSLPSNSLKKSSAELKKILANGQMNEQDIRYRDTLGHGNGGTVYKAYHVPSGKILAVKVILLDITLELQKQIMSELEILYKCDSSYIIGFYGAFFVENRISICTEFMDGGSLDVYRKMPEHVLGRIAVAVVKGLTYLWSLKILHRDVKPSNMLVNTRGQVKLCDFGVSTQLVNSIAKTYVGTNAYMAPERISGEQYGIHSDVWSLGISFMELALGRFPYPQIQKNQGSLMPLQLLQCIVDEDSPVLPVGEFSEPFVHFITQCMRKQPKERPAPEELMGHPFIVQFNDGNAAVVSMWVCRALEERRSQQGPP
Briefly: Selectivity interaction (KinomeScan (DiscoverX)) EUB0001049a MAP2K5. Particulars: at 1 µM.

Test [6] addresses Serine/threonine-protein kinase 32B (Homo sapiens) (UniProt Q9NY57). Briefly: Selectivity interaction (KinomeScan (DiscoverX)) EUB0000695a STK32B. Particulars: at 100 nM.
In the next test the target is Aurora kinase B (Homo sapiens, UniProt Q96GD4). Briefly: Selectivity interaction (KinomeScan (DiscoverX)) EUB0000595a AURKB. Particulars: at 10 µM.
Chain of Aurora kinase B (Q96GD4 whole entry): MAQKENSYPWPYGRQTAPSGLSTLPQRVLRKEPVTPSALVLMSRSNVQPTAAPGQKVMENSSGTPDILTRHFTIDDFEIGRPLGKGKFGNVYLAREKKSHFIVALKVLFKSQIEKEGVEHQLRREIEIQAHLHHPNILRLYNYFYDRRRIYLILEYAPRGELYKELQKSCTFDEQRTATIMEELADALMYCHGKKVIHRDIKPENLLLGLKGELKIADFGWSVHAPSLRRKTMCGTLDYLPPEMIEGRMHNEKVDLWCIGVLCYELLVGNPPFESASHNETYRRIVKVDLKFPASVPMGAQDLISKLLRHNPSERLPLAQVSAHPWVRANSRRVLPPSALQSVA
Test [7] concerns the target T3, Serine/threonine-protein kinase TAO3 (Homo sapiens) (UniProt Q9H2K8).
T3 sequence (whole entry): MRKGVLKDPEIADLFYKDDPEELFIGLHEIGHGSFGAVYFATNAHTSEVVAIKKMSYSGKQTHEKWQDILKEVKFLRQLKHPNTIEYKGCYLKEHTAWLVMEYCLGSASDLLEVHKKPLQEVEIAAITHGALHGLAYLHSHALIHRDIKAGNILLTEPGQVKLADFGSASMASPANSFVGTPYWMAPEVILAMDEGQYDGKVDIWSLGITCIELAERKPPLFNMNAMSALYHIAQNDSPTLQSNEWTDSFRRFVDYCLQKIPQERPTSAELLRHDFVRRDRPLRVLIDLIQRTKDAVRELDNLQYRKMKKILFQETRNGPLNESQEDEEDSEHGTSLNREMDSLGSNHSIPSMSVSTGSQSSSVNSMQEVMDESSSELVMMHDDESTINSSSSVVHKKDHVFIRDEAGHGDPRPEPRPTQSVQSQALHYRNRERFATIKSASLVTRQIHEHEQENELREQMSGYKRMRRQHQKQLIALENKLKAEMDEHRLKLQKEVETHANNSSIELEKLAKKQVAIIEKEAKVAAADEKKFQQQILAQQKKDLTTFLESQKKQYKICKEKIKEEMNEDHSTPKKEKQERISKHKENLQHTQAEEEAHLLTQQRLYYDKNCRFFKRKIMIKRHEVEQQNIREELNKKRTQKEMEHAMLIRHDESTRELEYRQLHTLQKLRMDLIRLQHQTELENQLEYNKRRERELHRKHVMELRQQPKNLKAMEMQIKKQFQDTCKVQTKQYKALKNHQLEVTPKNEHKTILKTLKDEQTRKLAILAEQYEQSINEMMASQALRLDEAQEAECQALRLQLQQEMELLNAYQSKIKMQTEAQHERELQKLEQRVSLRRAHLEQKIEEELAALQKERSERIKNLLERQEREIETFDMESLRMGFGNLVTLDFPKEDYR
The experiment in a line: Selectivity interaction (KinomeScan (DiscoverX)) EUB0000595a TAOK3. The note with it: at 10 µM.

Test [8] addresses Cyclin-dependent kinase 17 (Homo sapiens) (UniProt Q00537). The note with it: at 10 µM.

Chain of Serine/threonine-protein kinase/endoribonuclease IRE1 (Homo sapiens) (O75460 19-977 limits assumed): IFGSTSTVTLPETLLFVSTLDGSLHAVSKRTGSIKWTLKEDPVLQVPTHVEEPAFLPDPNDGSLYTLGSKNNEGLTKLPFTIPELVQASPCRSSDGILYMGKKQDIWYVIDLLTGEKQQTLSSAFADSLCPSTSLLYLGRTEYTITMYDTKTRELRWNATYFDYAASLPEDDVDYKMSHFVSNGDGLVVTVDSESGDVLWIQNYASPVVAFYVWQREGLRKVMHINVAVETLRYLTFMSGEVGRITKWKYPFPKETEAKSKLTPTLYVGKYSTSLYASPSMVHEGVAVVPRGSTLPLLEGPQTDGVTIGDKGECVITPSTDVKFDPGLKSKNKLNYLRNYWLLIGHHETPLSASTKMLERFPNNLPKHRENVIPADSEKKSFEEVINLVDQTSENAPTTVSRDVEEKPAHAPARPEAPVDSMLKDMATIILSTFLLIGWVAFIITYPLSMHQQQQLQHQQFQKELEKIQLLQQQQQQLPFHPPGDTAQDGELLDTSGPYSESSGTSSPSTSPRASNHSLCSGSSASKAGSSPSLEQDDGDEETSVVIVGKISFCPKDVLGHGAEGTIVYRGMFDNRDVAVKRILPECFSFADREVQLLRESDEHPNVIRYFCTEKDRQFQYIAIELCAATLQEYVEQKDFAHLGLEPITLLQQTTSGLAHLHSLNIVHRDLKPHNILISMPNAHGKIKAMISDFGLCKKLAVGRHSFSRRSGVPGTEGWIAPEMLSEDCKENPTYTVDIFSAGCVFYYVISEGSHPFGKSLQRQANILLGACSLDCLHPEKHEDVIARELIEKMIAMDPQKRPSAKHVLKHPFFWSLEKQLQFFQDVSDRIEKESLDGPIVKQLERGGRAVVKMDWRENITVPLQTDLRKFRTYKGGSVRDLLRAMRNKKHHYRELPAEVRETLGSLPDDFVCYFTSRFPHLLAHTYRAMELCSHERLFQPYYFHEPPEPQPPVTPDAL
Chain of Cyclin-dependent kinase 17 (Homo sapiens) (Q00537 whole entry, looked up): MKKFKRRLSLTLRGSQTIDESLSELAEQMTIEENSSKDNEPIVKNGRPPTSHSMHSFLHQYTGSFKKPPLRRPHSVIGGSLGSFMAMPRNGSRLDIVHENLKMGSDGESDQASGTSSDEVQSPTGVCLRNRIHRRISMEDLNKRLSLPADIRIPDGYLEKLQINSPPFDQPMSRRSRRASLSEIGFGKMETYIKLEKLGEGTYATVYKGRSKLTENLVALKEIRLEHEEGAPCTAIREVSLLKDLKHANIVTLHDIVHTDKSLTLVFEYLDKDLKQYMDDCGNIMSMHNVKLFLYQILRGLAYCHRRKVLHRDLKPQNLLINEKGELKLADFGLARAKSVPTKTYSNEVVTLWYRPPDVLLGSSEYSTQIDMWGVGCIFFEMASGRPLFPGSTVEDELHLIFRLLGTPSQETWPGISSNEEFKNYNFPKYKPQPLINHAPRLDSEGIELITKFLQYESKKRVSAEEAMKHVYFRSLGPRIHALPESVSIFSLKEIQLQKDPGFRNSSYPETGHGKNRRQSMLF
Chain of Serine/threonine-protein kinase 32B (Homo sapiens) (Q9NY57 whole entry): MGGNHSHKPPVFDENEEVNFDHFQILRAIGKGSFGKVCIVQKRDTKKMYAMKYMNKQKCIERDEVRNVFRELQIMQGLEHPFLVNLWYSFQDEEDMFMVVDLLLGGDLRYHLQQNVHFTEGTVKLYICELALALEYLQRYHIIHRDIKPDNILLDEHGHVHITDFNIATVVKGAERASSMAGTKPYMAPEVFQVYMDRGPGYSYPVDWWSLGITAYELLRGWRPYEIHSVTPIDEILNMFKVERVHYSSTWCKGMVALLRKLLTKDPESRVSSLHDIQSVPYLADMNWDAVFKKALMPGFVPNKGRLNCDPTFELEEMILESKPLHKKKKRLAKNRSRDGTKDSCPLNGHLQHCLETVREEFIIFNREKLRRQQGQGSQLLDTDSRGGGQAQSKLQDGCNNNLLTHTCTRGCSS

The molecule `O=C(NOC[C@H](O)CO)c1ccc(F)c(F)c1Nc1ccc(I)cc1F` displayed a % of control in test [1] of 97%.
Molecule `CC(C)(O)[C@H](F)CN1Cc2cc(NC(=O)c3cnn4cccnc34)c(N3CCOCC3)cc2C1=O` displayed a dTM in [2] of 0.5 K.
`COc1cc(N(C)c2ccnc3ccc(C(F)(F)F)cc23)cc(OC)c1OC`: in test [3], the % binding turned out to be 100%.
In [4], `CN1Cc2nccc(-c3cn(C)nc3-c3ccc(F)cc3)c2C1=O` showed a % of inhibition of 3%.
`COc1cc(Nc2nc(C)cc(-c3cnn4nc(OC)ccc34)n2)cc(C(F)(F)F)c1` showed a % of control in test [5] of 85%.
In test [6], `Cc1cc(F)c(C(=O)Nc2cccc(-c3nncn3C(C)C)n2)cc1-n1cnc(C2CC2)c1` gave a % of control of 93%.
Regarding `COCC(=O)NC/C=C/c1ccc2ncnc(Nc3ccc(Oc4ccc(C)nc4)c(C)c3)c2c1` [CP-724714], the % of control (at Aurora kinase B; in test [7]; in test [8]) was 100% each time.
